{
  "source": "patent US20100041089A1",
  "about": "“IMPROVED METHOD FOR DETECTING CHEMICAL […]” (priority 2006, published 2010)",
  "test_system": "yeast genes (expressed mRNA)",
  "experiment": "DNA chip measurement of expressed mRNA of yeast genes after culture with a toxic chemical substance",
  "type": "cell-based, Saccharomyces cerevisiae S288C",
  "conditions": "for level of expressed mRNA in the presence of chemical substance / level in the absence of chemical substance: cultured two hours with the chemical substance; for The level of expressed mRNA in the presence of chemical substance/The level of expressed mRNA in the absence of chemical substance: cultured two hours with substance",
  "method_in_brief": "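S. cerevisiae S288C grown at 25 °C in YPD, exposed in log phase for 2 h to a toxicant at growth-inhibiting, non-lethal concentration. Cy3/Cy5-labelled cDNA from poly(A) mRNA hybridized to whole-genome chip at 65 °C >12 h. Ratio to untreated control, ≥2 significant.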",
  "data": [
    {"substance": "Manganese ethylenebis(dithiocarbamate) [(8)]", "values": [
      {"measurement": "level of expressed mRNA in the presence of chemical substance / level in the absence of chemical substance", "setting": "yeast gene YJL097W", "value": 0.8},
      {"measurement": "The level of expressed mRNA in the presence of chemical substance/The level of expressed mRNA in the absence of chemical substance", "setting": "yeast gene YJL151C", "value": 0.8},
      {"measurement": "The level of expressed mRNA in the presence of chemical substance/The level of expressed mRNA in the absence of chemical substance", "setting": "yeast gene YJL152W", "value": 0.7},
      {"measurement": "The level of expressed mRNA in the presence of chemical substance/The level of expressed mRNA in the absence of chemical substance", "setting": "yeast gene YJL161W", "value": 1.4},
      {"measurement": "The level of expressed mRNA in the presence of chemical substance/The level of expressed mRNA in the absence of chemical substance", "setting": "yeast gene YJL171C", "value": 0.9},
      {"measurement": "The level of expressed mRNA in the presence of chemical substance/The level of expressed mRNA in the absence of chemical substance", "setting": "yeast gene YJR008W", "value": 1.1},
      {"measurement": "level of expressed mRNA in the presence of chemical substance / level in the absence of chemical substance", "setting": "yeast gene YJR030C", "value": 0.9},
      {"measurement": "The level of expressed mRNA in the presence of chemical substance/The level of expressed mRNA in the absence of chemical substance", "setting": "yeast gene YJR054W", "value": 1.6},
      {"measurement": "level of expressed mRNA in the presence of chemical substance / level in the absence of chemical substance", "setting": "yeast gene YKL051W", "value": 0.8},
      {"measurement": "The level of expressed mRNA in the presence of chemical substance/The level of expressed mRNA in the absence of chemical substance", "setting": "yeast gene YKL071W", "value": 24.7},
      {"measurement": "The level of expressed mRNA in the presence of chemical substance/The level of expressed mRNA in the absence of chemical substance", "setting": "yeast gene YKL086W", "value": 1.1},
      {"measurement": "level of expressed mRNA in the presence of chemical substance / level in the absence of chemical substance", "setting": "yeast gene YKL097C", "value": 0.4},
      {"measurement": "level of expressed mRNA in the presence of chemical substance / level in the absence of chemical substance", "setting": "yeast gene YKL100C", "value": 0.7},
      {"measurement": "The level of expressed mRNA in the presence of chemical substance/The level of expressed mRNA in the absence of chemical substance", "setting": "yeast gene YKL151C", "value": 1.0},
      {"measurement": "The level of expressed mRNA in the presence of chemical substance/The level of expressed mRNA in the absence of chemical substance", "setting": "yeast gene YKL153W", "value": 0.7},
      {"measurement": "The level of expressed mRNA in the presence of chemical substance/The level of expressed mRNA in the absence of chemical substance", "setting": "yeast gene YKL195W", "value": 1.2},
      {"measurement": "level of expressed mRNA in the presence of chemical substance / level in the absence of chemical substance", "setting": "yeast gene YKR040C", "value": 1.0},
      {"measurement": "The level of expressed mRNA in the presence of chemical substance/The level of expressed mRNA in the absence of chemical substance", "setting": "yeast gene YKR091W", "value": 1.3},
      {"measurement": "The level of expressed mRNA in the presence of chemical substance/The level of expressed mRNA in the absence of chemical substance", "setting": "yeast gene YLR054C", "value": 1.1},
      {"measurement": "The level of expressed mRNA in the presence of chemical substance/The level of expressed mRNA in the absence of chemical substance", "setting": "yeast gene YLR149C", "value": 1.1},
      {"measurement": "The level of expressed mRNA in the presence of chemical substance/The level of expressed mRNA in the absence of chemical substance", "setting": "yeast gene YLR152C", "value": 1.2},
      {"measurement": "The level of expressed mRNA in the presence of chemical substance/The level of expressed mRNA in the absence of chemical substance", "setting": "yeast gene YLR194C", "value": 1.0},
      {"measurement": "level of expressed mRNA in the presence of chemical substance / level in the absence of chemical substance", "setting": "yeast gene YLR226W", "value": 1.3},
      {"measurement": "The level of expressed mRNA in the presence of chemical substance/The level of expressed mRNA in the absence of chemical substance", "setting": "yeast gene YLR324W", "value": 1.0},
      {"measurement": "level of expressed mRNA in the presence of chemical substance / level in the absence of chemical substance", "setting": "yeast gene YLR338W", "value": 0.8},
      {"measurement": "The level of expressed mRNA in the presence of chemical substance/The level of expressed mRNA in the absence of chemical substance", "setting": "yeast gene YLR350W", "value": 1.0},
      {"measurement": "The level of expressed mRNA in the presence of chemical substance/The level of expressed mRNA in the absence of chemical substance", "setting": "yeast gene YLR387C", "value": 1.4},
      {"measurement": "level of expressed mRNA in the presence of chemical substance / level in the absence of chemical substance", "setting": "yeast gene YLR392C", "value": 1.3},
      {"measurement": "level of expressed mRNA in the presence of chemical substance / level in the absence of chemical substance", "setting": "yeast gene YLR415C", "value": 0.9},
      {"measurement": "level of expressed mRNA in the presence of chemical substance / level in the absence of chemical substance", "setting": "yeast gene YLR427W", "value": 1.1},
      {"measurement": "The level of expressed mRNA in the presence of chemical substance/The level of expressed mRNA in the absence of chemical substance", "setting": "yeast gene YLR460C", "value": 8.1},
      {"measurement": "level of expressed mRNA in the presence of chemical substance / level in the absence of chemical substance", "setting": "yeast gene YML013W", "value": 0.6},
      {"measurement": "level of expressed mRNA in the presence of chemical substance / level in the absence of chemical substance", "setting": "yeast gene YML029W", "value": 0.9},
      {"measurement": "level of expressed mRNA in the presence of chemical substance / level in the absence of chemical substance", "setting": "yeast gene YML041C", "value": 1.8},
      {"measurement": "level of expressed mRNA in the presence of chemical substance / level in the absence of chemical substance", "setting": "yeast gene YML079W", "value": 1.2},
      {"measurement": "The level of expressed mRNA in the presence of chemical substance/The level of expressed mRNA in the absence of chemical substance", "setting": "yeast gene YML117W", "value": 0.7},
      {"measurement": "The level of expressed mRNA in the presence of chemical substance/The level of expressed mRNA in the absence of chemical substance", "setting": "yeast gene YMR009W", "value": 1.4},
      {"measurement": "The level of expressed mRNA in the presence of chemical substance/The level of expressed mRNA in the absence of chemical substance", "setting": "yeast gene YMR067C", "value": 1.1},
      {"measurement": "level of expressed mRNA in the presence of chemical substance / level in the absence of chemical substance", "setting": "yeast gene YMR068W", "value": 0.8},
      {"measurement": "level of expressed mRNA in the presence of chemical substance / level in the absence of chemical substance", "setting": "yeast gene YMR071C", "value": 1.1},
      {"measurement": "The level of expressed mRNA in the presence of chemical substance/The level of expressed mRNA in the absence of chemical substance", "setting": "yeast gene YMR090W", "value": 3.9},
      {"measurement": "The level of expressed mRNA in the presence of chemical substance/The level of expressed mRNA in the absence of chemical substance", "setting": "yeast gene YMR095C", "value": 1.2},
      {"measurement": "The level of expressed mRNA in the presence of chemical substance/The level of expressed mRNA in the absence of chemical substance", "setting": "yeast gene YMR097C", "value": 1.5},
      {"measurement": "The level of expressed mRNA in the presence of chemical substance/The level of expressed mRNA in the absence of chemical substance", "setting": "yeast gene YMR102C", "value": 1.0},
      {"measurement": "The level of expressed mRNA in the presence of chemical substance/The level of expressed mRNA in the absence of chemical substance", "setting": "yeast gene YMR107W", "value": 1.3},
      {"measurement": "level of expressed mRNA in the presence of chemical substance / level in the absence of chemical substance", "setting": "yeast gene YMR160W", "value": 0.9},
      {"measurement": "The level of expressed mRNA in the presence of chemical substance/The level of expressed mRNA in the absence of chemical substance", "setting": "yeast gene YMR180C", "value": 1.8},
      {"measurement": "The level of expressed mRNA in the presence of chemical substance/The level of expressed mRNA in the absence of chemical substance", "setting": "yeast gene YMR184W", "value": 1.9},
      {"measurement": "The level of expressed mRNA in the presence of chemical substance/The level of expressed mRNA in the absence of chemical substance", "setting": "yeast gene YMR191W", "value": 1.1},
      {"measurement": "The level of expressed mRNA in the presence of chemical substance/The level of expressed mRNA in the absence of chemical substance", "setting": "yeast gene YMR295C", "value": 1.0},
      {"measurement": "The level of expressed mRNA in the presence of chemical substance/The level of expressed mRNA in the absence of chemical substance", "setting": "yeast gene YMR316W", "value": 1.6},
      {"measurement": "level of expressed mRNA in the presence of chemical substance / level in the absence of chemical substance", "setting": "yeast gene YNL026W", "value": 1.0}
    ]}
  ]
}
